The values below come from patent publication US5879716A, “Methods and compositions for topical delivery of benzoyl peroxide” (priority 1993, dated 1999).

Data set [1] in a line: Solubility of benzoyl peroxide. Format: physicochemical.
For data set [2] the following is noted: cited from earlier work.
The conditions of data set [3]: human skin specimens used within 7 to 10 days; cited from earlier work.

Where two headings read alike, the source gives them in different places.

In the case of `O=C(OOC(=O)c1ccccc1)c1ccccc1` [Benzoyl peroxide, benzoyl peroxide], the solution concentration obtainable entry in data set [1] (acetone and isopropanol) is “up to 10 % by weight”. For the same compound, in data set [1] (formulations F and G), the “solubility of the drug in the formulation” value is “very low solubility”. The solubility entry is on record as “exceedingly low solubility” in data set [1] (water or normal saline solution); “slightly soluble in alcohols” in data set [2] (alcohols); “soluble in nearly all organic solvents” in data set [2] (organic solvents); “limited solubility in most solvents” in data set [2] (organic solvents, listed as benzoyl peroxide); “slightly soluble in water” in data set [2] (water). Besides, in data set [3], the “metabolism during skin absorption” value was “metabolized to benzoic acid and accumulated as such in the receptor fluid”.
